Source: patent publication US20240368163A1, “COMPOUNDS AND METHODS FOR MODULATING SPLICING” (REMIX THERAPEUTICS INC., priority 2021, published 2024)

Assays:
Type in all cases: cell-based, human
HTT [1] = experiment: Splicing RT-qPCR assay, HTT mRNA canonical junction (CJ) and alternative junction (AJ); settings: Homo sapiens, gene panel, CJ qPCR, protocol of Example 142; read-out: HTT IC50 (decrease in CJ mRNA levels)
How it was run: (§1)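 Splice switching is measured in A673 or K562 cells after 24 h compound exposure (maximum 10 uM, 3-fold steps). Canonical and alternative junction mRNA levels are quantified by RT-qPCR relative to housekeeper and DMSO.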

MYB [2] = experiment: Splicing RT-qPCR assay, MYB mRNA canonical junction (CJ) and alternative junction (AJ); settings: Homo sapiens, gene panel, CJ qPCR, protocol of Example 142; read-out: MYB IC50 (decrease in CJ mRNA levels)
How it was run: as §1

SMN2 = experiment: Splicing RT-qPCR panel, SMN2 canonical junction (CJ) mRNA; settings: Homo sapiens, gene panel, CJ qPCR, protocol of Example 142; read-out: SMN2 IC50 (decrease in CJ mRNA levels)
How it was run: as §1

Target C [3] = experiment: Splicing RT-qPCR panel, Target C canonical junction (CJ) mRNA; settings: Homo sapiens, gene panel, CJ qPCR, protocol of Example 142; read-out: Target C IC50 (decrease in CJ mRNA levels)
How it was run: as §1

MYB [4] = experiment: HiBiT protein abundance assay, MYB; settings: Homo sapiens, K562, 24 h, Table 13B, modified K562 cells
How it was run: (§2)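 Protein abundance measured by Nano-Glo HiBiT lytic luminescence after 24 h compound exposure of modified K562 lines, 10000 cells/well, top final dose 10 μM in 3-fold steps. Four-parameter fit of control-normalised response gives concentration reducing abundance to 50% of untreated.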

HTT [5] = experiment: HiBiT protein abundance assay, HTT; settings: Homo sapiens, K562, 24 h, Table 13B, modified K562 cells
How it was run: as §2

Target C [6] = experiment: HiBiT protein abundance assay, Target C; settings: Homo sapiens, K562, 24 h, Table 13B, modified K562 cells
How it was run: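 Target protein levels in engineered HiBiT-tagged cells were read by lytic luminescence after 24 h compound exposure (10000 cells/well, 10 μM top final, 3-fold steps, ≤0.25% DMSO). Unmodified K562 served as baseline; four-parameter regression gave concentration reducing abundance to 50%.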

For `CNc1nc(-c2ccc(N(C)[C@@H]3C[C@H]4CC[C@@H](C3)N4)nn2)ccc1-c1cn[nH]c1` [Compound 936], the IC50 (HTT [1]) was 0.1 to 1 µM, the IC50 (MYB [2]) was 1 to 10 µM and the IC50 (SMN2) was < 0.1 µM. For the same compound, the IC50 (Target C [3]) was 0.1 to 1 µM, the IC50 (MYB [4]) was 0.1 to 1 µM and the IC50 (HTT [5]) was 0.1 to 1 µM. For the same compound, the IC50 (Target C [6]) was 0.1 to 1 µM.
In the case of `CC(C)Oc1nc(-c2ccc(N(C)[C@@H]3C[C@H]4CC[C@@H](C3)N4)nn2)ccc1-c1cn[nH]c1` [Compound 937], the IC50 (HTT [1]) is reported as 0.1 to 1 µM, the IC50 (MYB [2]) is reported as 0.1 to 1 µM and the IC50 (SMN2) is reported as < 0.1 µM. The IC50 (Target C [3]) was 1 to 10 µM, the IC50 (MYB [4]) was 0.1 to 1 µM and the IC50 (HTT [5]) was 0.1 to 1 µM. For the same compound, the IC50 (Target C [6]) was 1 to 10 µM.
`CN(C)c1nc(-c2ccc(N(C)[C@@H]3C[C@H]4CC[C@@H](C3)N4)nn2)ccc1-c1cn[nH]c1` [Compound 938] was tested, and the IC50 (HTT [1]) was 1 to 10 µM, the IC50 (MYB [2]) was > 10 µM and the IC50 (SMN2) was 1 to 10 µM. For the same compound, the IC50 (Target C [3]) was 1 to 10 µM, the IC50 (MYB [4]) was 1 to 10 µM and the IC50 (HTT [5]) was 1 to 10 µM. It also gave an IC50 (Target C [6]) of 1 to 10 µM.
For `COc1nc(-c2ccc(NC3CCNCC3)nn2)ccc1-n1cccn1` [Compound 941], the IC50 (HTT [1]) was > 10 µM, the IC50 (MYB [2]) was > 10 µM and the IC50 (SMN2) was 1 to 10 µM. For the same compound, the IC50 (Target C [3]) was > 10 µM, the IC50 (MYB [4]) was > 10 µM and the IC50 (HTT [5]) was > 10 µM. The IC50 (Target C [6]) was > 10 µM.
In the case of `COc1nc(-c2ccc(N[C@@H]3C[C@H]4CC[C@@H](C3)N4)nn2)ccc1-c1cnn(C)n1` [Compound 942], the IC50 (HTT [1]) is reported as 1 to 10 µM, the IC50 (MYB [2]) is reported as > 10 µM and the IC50 (SMN2) is reported as < 0.1 µM. For the same compound, the IC50 (Target C [3]) was 1 to 10 µM, the IC50 (MYB [4]) was 0.1 to 1 µM and the IC50 (HTT [5]) was < 0.1 µM. For the same compound, the IC50 (Target C [6]) was 0.1 to 1 µM.
`COc1nc(-c2ccc(O[C@@H]3C[C@H]4CC[C@@H](C3)N4)nn2)ccc1-c1cn(C)nn1` [Compound 943] was tested, and the IC50 (HTT [1]) was 1 to 10 µM, the IC50 (MYB [2]) was > 10 µM and the IC50 (SMN2) was > 10 µM. For the same compound, the IC50 (Target C [3]) was > 10 µM, the IC50 (MYB [4]) was 1 to 10 µM and the IC50 (HTT [5]) was 1 to 10 µM. The IC50 (Target C [6]) was > 10 µM.
`COc1nc(-c2ccc(N[C@@H]3C[C@H]4CC[C@@H](C3)N4)nn2)ccc1-c1cn(C)nn1` [Compound 944] was tested, and the IC50 (HTT [1]) was 0.1 to 1 µM, the IC50 (MYB [2]) was 1 to 10 µM and the IC50 (SMN2) was 0.1 to 1 µM. For the same compound, the IC50 (Target C [3]) was 1 to 10 µM, the IC50 (MYB [4]) was 0.1 to 1 µM and the IC50 (HTT [5]) was 1 to 10 µM. It also gave an IC50 (Target C [6]) of 1 to 10 µM.
In the case of `COc1nc(-c2ccc(N(C)[C@@H]3C[C@H]4CC[C@@H](C3)N4)nn2)ccc1-c1cn(C)nn1` [Compound 945], the IC50 (HTT [1]) is reported as 0.1 to 1 µM, the IC50 (MYB [2]) is reported as 1 to 10 µM and the IC50 (SMN2) is reported as < 0.1 µM. It also gave an IC50 (Target C [3]) of 1 to 10 µM, an IC50 (MYB [4]) of 0.1 to 1 µM and an IC50 (HTT [5]) of 0.1 to 1 µM. For the same compound, the IC50 (Target C [6]) was 0.1 to 1 µM.
Work on `COc1nc(-c2ccc(OC3CC(C)(C)NC(C)(C)C3)nn2)ccc1-c1cn(C)nn1` [Compound 946] yielded an IC50 (HTT [1]) of 1 to 10 µM, an IC50 (MYB [2]) of 1 to 10 µM and an IC50 (SMN2) of 0.1 to 1 µM. The IC50 (Target C [3]) was > 10 µM, the IC50 (MYB [4]) was 1 to 10 µM and the IC50 (HTT [5]) was 1 to 10 µM. For the same compound, the IC50 (Target C [6]) was > 10 µM.
In the case of `COc1nc(-c2ccc(N[C@@H]3C[C@H]4CC[C@@H](C3)N4)nn2)ccc1-n1cccn1` [Compound 948], the IC50 (HTT [1]) is reported as 0.1 to 1 µM, the IC50 (MYB [2]) is reported as 1 to 10 µM and the IC50 (SMN2) is reported as 0.1 to 1 µM. The IC50 (Target C [3]) was 1 to 10 µM, the IC50 (MYB [4]) was 0.1 to 1 µM and the IC50 (HTT [5]) was 0.1 to 1 µM. It also gave an IC50 (Target C [6]) of 0.1 to 1 µM.
With `COc1nc(-c2ccc(OC3CC4CCC(C3)N4)nn2)ccc1-n1cccn1` (stereo not drawn) [Compound 949] the IC50 (HTT [1]) was 1 to 10 µM, the IC50 (MYB [2]) was > 10 µM and the IC50 (SMN2) was 1 to 10 µM. The IC50 (Target C [3]) was > 10 µM, the IC50 (MYB [4]) was 1 to 10 µM and the IC50 (HTT [5]) was 1 to 10 µM. For the same compound, the IC50 (Target C [6]) was 1 to 10 µM.
`COc1nc(-c2ccc(N(C)[C@@H]3C[C@H]4CC[C@@H](C3)N4)nn2)ccc1-c1cnc(C)cn1` [Compound 950] was tested, and the IC50 (HTT [1]) was 0.1 to 1 µM, the IC50 (MYB [2]) was 0.1 to 1 µM and the IC50 (SMN2) was < 0.1 µM. The IC50 (Target C [3]) was 1 to 10 µM, the IC50 (MYB [4]) was 0.1 to 1 µM and the IC50 (HTT [5]) was 0.1 to 1 µM. It also gave an IC50 (Target C [6]) of 0.1 to 1 µM.
Compound `COc1cnc(-c2ccc(-c3ccc(N(C)[C@@H]4C[C@H]5CC[C@@H](C4)N5)nn3)nc2OC)cn1` [Compound 951] has an IC50 (HTT [1]) of 0.1 to 1 µM, an IC50 (MYB [2]) of 0.1 to 1 µM and an IC50 (SMN2) of 0.1 to 1 µM. For the same compound, the IC50 (Target C [3]) was 0.1 to 1 µM, the IC50 (MYB [4]) was 0.1 to 1 µM and the IC50 (HTT [5]) was < 0.1 µM. It also gave an IC50 (Target C [6]) of 0.1 to 1 µM.
In the case of `COc1nc(-c2ccc(N3CCC(NC(C)(C)C)C3)nn2)ccc1-n1cccn1` (stereo not drawn) [Compound 957], the IC50 (HTT [1]) is reported as 1 to 10 µM, the IC50 (MYB [2]) is reported as 1 to 10 µM and the IC50 (SMN2) is reported as 1 to 10 µM. It also gave an IC50 (Target C [3]) of 1 to 10 µM, an IC50 (MYB [4]) of 1 to 10 µM and an IC50 (HTT [5]) of 1 to 10 µM. The IC50 (Target C [6]) was 1 to 10 µM.
With `COc1nc(-c2ccc(N3CCC(NC4CC4)C3)nn2)ccc1-n1cccn1` (stereo not drawn) [Compound 958] the IC50 (HTT [1]) was > 10 µM, the IC50 (MYB [2]) was > 10 µM and the IC50 (SMN2) was 1 to 10 µM. For the same compound, the IC50 (Target C [3]) was > 10 µM, the IC50 (MYB [4]) was > 10 µM and the IC50 (HTT [5]) was > 10 µM. The IC50 (Target C [6]) was > 10 µM.
